Tested on: MV-4-11 cells
Assay: Gene expression microarray analysis (Affymetrix PrimeView) and GSEA
Assay type: cell-based, human
Parameters: RFU PODN (11730768_x_at) / Fold change /veh PODN (11730768_x_at) / RFU LINC00158 (11744669_a_at) / Fold change /veh LINC00158 (11744669_a_at) / RFU DUSP10 (11751237_a_at) / Fold change /veh DUSP10 (11751237_a_at) / RFU ID3 (11757404_x_at) / Fold change /veh ID3 (11757404_x_at) / RFU PLEKHG5 (11737974_s_at) / Fold change /veh PLEKHG5 (11737974_s_at) / RFU LRRC4B (11730491_at) / Fold change /veh LRRC4B (11730491_at) / RFU GIMAP4 (11747438_a_at) / Fold change /veh GIMAP4 (11747438_a_at) / RFU KRT8 (11758183_x_at) / Fold change /veh KRT8 (11758183_x_at) / RFU CNN1 (11734310_a_at) / Fold change /veh CNN1 (11734310_a_at) / RFU VPS37D (11726825_at) / Fold change /veh VPS37D (11726825_at) / RFU C10orf10 (11716522_x_at) / Fold change /veh C10orf10 (11716522_x_at) / RFU KIR2DL2 /// KIR2DL4 /// KIR2DL5A /// KIR2DL5B /// KIR2DS1 /// KIR2DS2 /// KIR2DS3 /// KIR2DS4 /// KIR3DL3 /// KIR3DL3 /// KIR3DS1 (11738374_at) / Fold change /veh KIR2DL2 /// KIR2DL4 /// KIR2DL5A /// KIR2DL5B /// KIR2DS1 /// KIR2DS2 /// KIR2DS3 /// KIR2DS4 /// KIR3DL3 /// KIR3DL3 /// KIR3DS1 (11738374_at) / RFU C1QL1 (11718748_at) / Fold change /veh C1QL1 (11718748_at) / RFU TMPRSS4 (11747572_a_at) / Fold change /veh TMPRSS4 (11747572_a_at) / RFU HAMP (11756126_x_at) / Fold change /veh HAMP (11756126_x_at) / RFU RNFT2 (11725882_a_at) / Fold change /veh RNFT2 (11725882_a_at) / RFU NR4A2 (11747474_a_at) / Fold change /veh NR4A2 (11747474_a_at) / RFU ABCC12 (11746883_a_at) / Fold change /veh ABCC12 (11746883_a_at) / RFU TMEM136 (11760407_x_at) / Fold change /veh TMEM136 (11760407_x_at) / RFU CLDN22 /// WWC2 (11732394_at) / Fold change /veh CLDN22 /// WWC2 (11732394_at) / RFU HLA-DPB1 (11760878_x_at) / Fold change /veh HLA-DPB1 (11760878_x_at) / RFU SPINT1 (11716480_a_at) / Fold change /veh SPINT1 (11716480_a_at) / RFU GAP43 (11754022_s_at) / Fold change /veh GAP43 (11754022_s_at) / RFU A4GNT (11735810_at) / Fold change /veh A4GNT (11735810_at) / RFU PRB3 (11715151_x_at) / Fold change /veh PRB3 (11715151_x_at) / RFU TUBB4B (11761932_at) / Fold change /veh TUBB4B (11761932_at) / RFU CAPN14 (11732068_a_at) / Fold change /veh CAPN14 (11732068_a_at) / RFU TMCC2 (11721928_a_at) / Fold change /veh TMCC2 (11721928_a_at) / RFU IRGQ (11745062_a_at) / Fold change /veh IRGQ (11745062_a_at) / RFU FAM174B (11720279_a_at) / Fold change /veh FAM174B (11720279_a_at) / RFU TMPRSS4 (11748680_a_at) / Fold change /veh TMPRSS4 (11748680_a_at) / RFU FAM212B (11763350_a_at) / Fold change /veh FAM212B (11763350_a_at) / RFU PLEKHG5 (11743358_a_at) / Fold change /veh PLEKHG5 (11743358_a_at) / RFU ZSCAN30 (11745921_a_at) / Fold change /veh ZSCAN30 (11745921_a_at) / RFU CMKLR1 (11741424_a_at) / Fold change /veh CMKLR1 (11741424_a_at) / RFU LOC101060620 /// MAPK8IP1 (11723275_at) / Fold change /veh LOC101060620 /// MAPK8IP1 (11723275_at) / RFU SPTSSB (11747773_x_at) / Fold change /veh SPTSSB (11747773_x_at) / RFU PRSS12 (11739890_at) / Fold change /veh PRSS12 (11739890_at) / RFU BIN1 (11741810_x_at) / Fold change /veh BIN1 (11741810_x_at) / RFU WNT11 (11732464_a_at) / Fold change /veh WNT11 (11732464_a_at) / RFU C10orf10 (11716521_a_at) / Fold change /veh C10orf10 (11716521_a_at) / RFU C5orf56 (11738089_at) / Fold change /veh C5orf56 (11738089_at) / RFU CYB561 (11721691_x_at) / Fold change /veh CYB561 (11721691_x_at) / RFU ANKRD19P (11752326_a_at) / Fold change /veh ANKRD19P (11752326_a_at) / RFU OR2T12 /// OR2T33 /// OR2T8 (11738714_s_at) / Fold change /veh OR2T12 /// OR2T33 /// OR2T8 (11738714_s_at) / RFU VCAN (11748164_a_at) / Fold change /veh VCAN (11748164_a_at) / RFU JSRP1 (11732532_at) / Fold change /veh JSRP1 (11732532_at) / RFU KRTAP10-11 (11738290_x_at) / Fold change /veh KRTAP10-11 (11738290_x_at) / RFU MYO3A (11730013_a_at) / Fold change /veh MYO3A (11730013_a_at) / RFU EBF3 (11725865_a_at) / Fold change /veh EBF3 (11725865_a_at) / RFU CAMK2N1 (11719241_x_at) / Fold change /veh CAMK2N1 (11719241_x_at) / RFU C5orf56 (11738088_a_at) / Fold change /veh C5orf56 (11738088_a_at) / RFU OLFML3 (11715873_a_at) / Fold change /veh OLFML3 (11715873_a_at) / RFU LOC100653217 /// NTM (11731650_a_at) / Fold change /veh LOC100653217 /// NTM (11731650_a_at) / RFU MAPK11 (11762145_a_at) / Fold change /veh MAPK11 (11762145_a_at) / RFU FIZ1 (11724087_x_at) / Fold change /veh FIZ1 (11724087_x_at) / RFU OASL (11726364_x_at) / Fold change /veh OASL (11726364_x_at) / RFU SOX15 (11748057_x_at) / Fold change /veh SOX15 (11748057_x_at) / RFU CD79A (11719716_a_at) / Fold change /veh CD79A (11719716_a_at) / RFU HIST1H1D (11736915_at) / Fold change /veh HIST1H1D (11736915_at) / RFU CASKIN2 (11723855_a_at) / Fold change /veh CASKIN2 (11723855_a_at) / RFU LOC730098 (11760151_x_at) / Fold change /veh LOC730098 (11760151_x_at) / RFU OR4N2 (11742367_at) / Fold change /veh OR4N2 (11742367_at) / RFU PRRT2 (11749266_a_at) / Fold change /veh PRRT2 (11749266_a_at) / RFU SNX32 (11753110_a_at) / Fold change /veh SNX32 (11753110_a_at) / RFU CDHR5 (11726645_a_at) / Fold change /veh CDHR5 (11726645_a_at) / RFU RCAN1 (11760418_a_at) / Fold change /veh RCAN1 (11760418_a_at) / RFU FAM167A (11723789_a_at) / Fold change /veh FAM167A (11723789_a_at) / RFU FAM26E (11764081_at) / Fold change /veh FAM26E (11764081_at) / RFU ISYNA1 (11749810_s_at) / Fold change /veh ISYNA1 (11749810_s_at) / RFU ACY1 (11761880_at) / Fold change /veh ACY1 (11761880_at) / RFU 11764098_at / Fold change /veh 11764098_at / RFU SAMD14 (11745864_x_at) / Fold change /veh SAMD14 (11745864_x_at) / RFU NPB (11741838_a_at) / Fold change /veh NPB (11741838_a_at) / RFU TMPRSS6 (11731388_a_at) / Fold change /veh TMPRSS6 (11731388_a_at) / RFU KRTAP10-2 (11738614_at) / Fold change /veh KRTAP10-2 (11738614_at) / RFU ARHGAP8 /// PRR5-ARHGAP8 (11727945_x_at) / Fold change /veh ARHGAP8 /// PRR5-ARHGAP8 (11727945_x_at) / RFU KRTAP5-7 /// NADSYN1 (11734609_at) / Fold change /veh KRTAP5-7 /// NADSYN1 (11734609_at) / RFU RASL12 (11751679_a_at) / Fold change /veh RASL12 (11751679_a_at) / RFU CDKN2B (11736163_a_at) / Fold change /veh CDKN2B (11736163_a_at) / RFU PRF1 (11729649_at) / Fold change /veh PRF1 (11729649_at) / RFU, ZNF638 /// ZNF638-IT1 / Fold change vs veh, ZNF638 /// ZNF638-IT1 / RFU, PANK3 / Fold change vs veh, PANK3 / RFU, SH3YL1 / Fold change vs veh, SH3YL1 / RFU, ZEB2 / Fold change vs veh, ZEB2 / RFU, NRIP1 / Fold change vs veh, NRIP1 / RFU, PTTG1IP / Fold change vs veh, PTTG1IP / RFU, CAPN2 / Fold change vs veh, CAPN2 / RFU, MED14 / Fold change vs veh, MED14 / RFU, SNORA58 / Fold change vs veh, SNORA58 / RFU, C1orf63 / Fold change vs veh, C1orf63 / RFU, LRRFIP1 / Fold change vs veh, LRRFIP1 / RFU, NDUFAF7 / Fold change vs veh, NDUFAF7 / RFU, SLC12A2 / Fold change vs veh, SLC12A2 / RFU, IBTK / Fold change vs veh, IBTK / RFU, ESF1 / Fold change vs veh, ESF1 / Fold change vs veh, TMEM50B / RFU, TAOK1 / Fold change vs veh, TAOK1 / RFU, ACBD3 / Fold change vs veh, ACBD3 / RFU, TMA16 / Fold change vs veh, TMA16 / RFU, RWDD3 / Fold change vs veh, RWDD3 / RFU, BCAT1 / Fold change vs veh, BCAT1 / RFU, EDEM3 / Fold change vs veh, EDEM3 / RFU, TMEM33 / Fold change vs veh, TMEM33 / RFU, WDR75 / Fold change vs veh, WDR75 / RFU, AHCTF1 / Fold change vs veh, AHCTF1 / RFU, TFRC / Fold change vs veh, TFRC / RFU, ZDHHC17 / Fold change vs veh, ZDHHC17 / RFU, NOM1 / Fold change vs veh, NOM1 / RFU, ARL8B / Fold change vs veh, ARL8B / RFU, ZBTB11 / Fold change vs veh, ZBTB11 / RFU, TAMM41 / Fold change vs veh, TAMM41 / RFU, KIAA1704 /// LOC100996395 / Fold change vs veh, KIAA1704 /// LOC100996395 / RFU, ING1 / Fold change vs veh, ING1 / RFU, TRMT61B / Fold change vs veh, TRMT61B / RFU, FUBP3 / Fold change vs veh, FUBP3 / RFU, TP53 / Fold change vs veh, TP53 / RFU, TNKS2 / Fold change vs veh, TNKS2 / RFU, ZFP14 / Fold change vs veh, ZFP14 / RFU, ACTR2 / Fold change vs veh, ACTR2 / RFU, PPP3R1 / Fold change vs veh, PPP3R1 / RFU, PIK3R1 / Fold change vs veh, PIK3R1 / RFU, HNRNPA1 / Fold change vs veh, HNRNPA1 / RFU, RNF170 / Fold change vs veh, RNF170 / RFU, ZNF28 / Fold change vs veh, ZNF28 / RFU, RNGTT / Fold change vs veh, RNGTT / RFU, OGT / Fold change vs veh, OGT / RFU, BRD1 / Fold change vs veh, BRD1 / RFU, MARS / Fold change vs veh, MARS / RFU, ZNF655 / Fold change vs veh, ZNF655 / RFU, FAHD1 / Fold change vs veh, FAHD1 / RFU, BDP1 / Fold change vs veh, BDP1 / RFU, LRRCC1 / Fold change vs veh, LRRCC1 / RFU, ARID1A / Fold change vs veh, ARID1A / RFU, ZNF146 / Fold change vs veh, ZNF146 / RFU, ZNF330 / Fold change vs veh, ZNF330 / RFU, GPN3 / Fold change vs veh, GPN3 / RFU, C9orf123 / Fold change vs veh, C9orf123 / RFU, N4BP2L2 / Fold change vs veh, N4BP2L2 / RFU, ARFIP1 / Fold change vs veh, ARFIP1 / RFU, FAM179B / Fold change vs veh, FAM179B / RFU, BCL10 / Fold change vs veh, BCL10 / RFU, UHRF1BP1L / Fold change vs veh, UHRF1BP1L / RFU, BET1 / Fold change vs veh, BET1 / RFU, CNOT2 / Fold change vs veh, CNOT2 / RFU, ZNF268 / Fold change vs veh, ZNF268 / Fold change vs veh, ZNF507 / RFU, DGCR2 / Fold change vs veh, DGCR2 / RFU, WDSUB1 / Fold change vs veh, WDSUB1 / Fold change vs veh, HSP90B1 /// MIR3652 / RFU, ADSS / Fold change vs veh, ADSS / RFU, GK / Fold change vs veh, GK / RFU, ZNF148 / Fold change vs veh, ZNF148 / RFU, TAF9 / Fold change vs veh, TAF9 / RFU, SLC1A5 / Fold change vs veh, SLC1A5 / RFU, SLMO2 / Fold change vs veh, SLMO2 / RFU, ABCC4 / Fold change vs veh, ABCC4 / RFU, LOC101060439 /// RAP1B / Fold change vs veh, LOC101060439 /// RAP1B / RFU, RFX7 / Fold change vs veh, RFX7 / RFU, GTPBP10 / Fold change vs veh, GTPBP10 / RFU, CNEP1R1 / Fold change vs veh, CNEP1R1 / RFU, BIVM-ERCC5 /// ERCC5 / Fold change vs veh, BIVM-ERCC5 /// ERCC5 / RFU, ILF3 / Fold change vs veh, ILF3 / RFU 11762660_at / Fold change /veh 11762660_at / RFU VCAN (11757783_s_at) / Fold change /veh VCAN (11757783_s_at) / RFU DDX43 (11728927_at) / Fold change /veh DDX43 (11728927_at) / RFU KRT8 (11758188_x_at) / Fold change /veh KRT8 (11758188_x_at) / RFU NKD1 (11759106_at) / Fold change /veh NKD1 (11759106_at) / RFU SRD5A1 (11742802_a_at) / Fold change /veh SRD5A1 (11742802_a_at) / RFU TPSAB1 /// TPSB2 (11721975_s_at) / Fold change /veh TPSAB1 /// TPSB2 (11721975_s_at) / RFU GSTM3 (11746129_a_at) / Fold change /veh GSTM3 (11746129_a_at) / RFU IL23R (11737362_x_at) / Fold change /veh IL23R (11737362_x_at) / RFU TMEM51 (11727254_a_at) / Fold change /veh TMEM51 (11727254_a_at) / RFU PIWIL2 (11732686_x_at) / Fold change /veh PIWIL2 (11732686_x_at) / RFU ORM1 (11744905_x_at) / Fold change /veh ORM1 (11744905_x_at) / RFU CCDC152 (11743942_at) / Fold change /veh CCDC152 (11743942_at) / RFU ECM1 (11717891_a_at) / Fold change /veh ECM1 (11717891_a_at) / RFU IL23R (11748794_a_at) / Fold change /veh IL23R (11748794_a_at) / RFU TNFAIP8L3 (11732012_x_at) / Fold change /veh TNFAIP8L3 (11732012_x_at) / RFU MBOAT4 (11741988_at) / Fold change /veh MBOAT4 (11741988_at) / RFU 11764193_at / Fold change /veh 11764193_at / RFU TMEM53 (11763286_at) / Fold change /veh TMEM53 (11763286_at) / RFU MAGEB2 (11727129_at) / Fold change /veh MAGEB2 (11727129_at) / RFU TMEM200A (11744735_a_at) / Fold change /veh TMEM200A (11744735_a_at) / RFU CCDC152 (11751479_a_at) / Fold change /veh CCDC152 (11751479_a_at) / RFU FAM211A (11726209_a_at) / Fold change /veh FAM211A (11726209_a_at) / RFU RGS16 (11746705_a_at) / Fold change /veh RGS16 (11746705_a_at) / RFU VCAN (11755009_s_at) / Fold change /veh VCAN (11755009_s_at) / RFU RHOB (11743442_s_at) / Fold change /veh RHOB (11743442_s_at) / RFU RGS16 (11720943_a_at) / Fold change /veh RGS16 (11720943_a_at) / RFU RGS16 (11720944_at) / Fold change /veh RGS16 (11720944_at) / RFU, VPS4B / Fold change vs veh, VPS4B / RFU, CREB1 / Fold change vs veh, CREB1 / RFU, DNAJC13 / Fold change vs veh, DNAJC13 / RFU, GNAQ / Fold change vs veh, GNAQ / RFU, CDK5R1 / Fold change vs veh, CDK5R1 / RFU, ZRANB3 / Fold change vs veh, ZRANB3 / RFU, CUL4A / Fold change vs veh, CUL4A / RFU, CCNY / Fold change vs veh, CCNY / RFU, UFL1 / Fold change vs veh, UFL1 / RFU, COG3 / Fold change vs veh, COG3 / RFU, DIAPH2 / Fold change vs veh, DIAPH2 / RFU, SKA2 / Fold change vs veh, SKA2 / RFU, AFF3 / Fold change vs veh, AFF3 / RFU, LMF1 / Fold change vs veh, LMF1 / RFU, IPO11 / Fold change vs veh, IPO11 / RFU, DFFB / Fold change vs veh, DFFB / RFU, FOXP1 / Fold change vs veh, FOXP1 / RFU, CARD8 / Fold change vs veh, CARD8 / RFU, STRN3 / Fold change vs veh, STRN3 / RFU, ADK / Fold change vs veh, ADK / RFU, RASSF2 / Fold change vs veh, RASSF2 / RFU, WIPF1 / Fold change vs veh, WIPF1 / RFU, LARP1B / Fold change vs veh, LARP1B / RFU, RASA1 / Fold change vs veh, RASA1 / RFU, RB1 / Fold change vs veh, RB1 / RFU, PPFIA1 / Fold change vs veh, PPFIA1 / RFU, MAT2A / Fold change vs veh, MAT2A / RFU, CCT5 / Fold change vs veh, CCT5 / RFU, WDR92 / Fold change vs veh, WDR92 / RFU, CUX1 / Fold change vs veh, CUX1 / RFU, TTC7A / Fold change vs veh, TTC7A / RFU, TMEM135 / Fold change vs veh, TMEM135 / RFU, DEPTOR / Fold change vs veh, DEPTOR / RFU, CPM / Fold change vs veh, CPM / RFU, DNAJB6 / Fold change vs veh, DNAJB6 / RFU, CACNA2D3 / Fold change vs veh, CACNA2D3 / RFU, DTX4 / Fold change vs veh, DTX4 / RFU, TFCP2 / Fold change vs veh, TFCP2 / RFU, GMCL1 /// GMCL1P1 / Fold change vs veh, GMCL1 /// GMCL1P1 / RFU, AEBP2 / Fold change vs veh, AEBP2 / RFU, SNHG1 /// SNORD22 /// SNORD25 /// SNORD26 /// SNORD27 /// SNORD28 /// SNORD29 /// SNORD31 / Fold change vs veh, SNHG1 /// SNORD22 /// SNORD25 /// SNORD26 /// SNORD27 /// SNORD28 /// SNORD29 /// SNORD31 / Fold change (Aza/veh), C12orf56 (ProbeSet 11735607_a_at) / Fold change (ACY-1035/veh), C12orf56 (ProbeSet 11735607_a_at) / Fold change (Aza/veh), FGFR1OP (ProbeSet 11751329_s_at) / Fold change (ACY-1035/veh), FGFR1OP (ProbeSet 11751329_s_at) / Fold change (Aza/veh), VPS36 (ProbeSet 11739960_a_at) / Fold change (ACY-1035/veh), VPS36 (ProbeSet 11739960_a_at) / RFU SYPL1 (11715823_x_at) / Fold change /veh SYPL1 (11715823_x_at) / RFU IGFBP7 (11715501_s_at) / Fold change /veh IGFBP7 (11715501_s_at) / RFU REEP3 (11722064_at) / Fold change /veh REEP3 (11722064_at) / RFU IGLL1 (11728026_x_at) / Fold change /veh IGLL1 (11728026_x_at): dose or concentration left out as unconfirmed
Settings: ProbeSet 11728443_a_at; LIST B

SMILES: Nc1ncn([C@@H]2O[C@H](CO)[C@@H](O)[C@H]2O)c(=O)n1 [azacitidine]
- Fold change vs veh, TAOK1: 0.96
